Columns and labels:
Format in all cases: ADME, organism-based
[1] = Volume of distribution in Sprague-Dawley rat at 1 mg/kg, iv measured upto 24 hrs by LC-MS/MS analysis; settings: in vivo, read-out: Vz
[2] = Drug distribution in Sprague-Dawley rat kidney at 5 mg/kg, po; settings: in vivo
[3] = Apparent clearance during terminal phase in Sprague-Dawley rat at 5 mg/kg, po measured upto 24 hrs by LC-MS/MS analysis; settings: in vivo
[4] = Cmax in Sprague-Dawley rat at 1 mg/kg, iv measured upto 24 hrs by LC-MS/MS analysis; settings: in vivo
[5] = Tmax in Sprague-Dawley rat at 5 mg/kg, po measured upto 24 hrs by LC-MS/MS analysis; settings: in vivo
[6] = MRT (0 to infinity) in Sprague-Dawley rat at 1 mg/kg, iv measured upto 24 hrs by LC-MS/MS analysis; settings: in vivo
[7] = AUC (0 to infinity) in Sprague-Dawley rat at 5 mg/kg, po measured upto 24 hrs by LC-MS/MS analysis; settings: in vivo
[8] = Half life in Sprague-Dawley rat at 1 mg/kg, iv measured upto 24 hrs by LC-MS/MS analysis; settings: in vivo
[9] = MRT (0 to t) in Sprague-Dawley rat at 1 mg/kg, iv measured upto 24 hrs by LC-MS/MS analysis; settings: in vivo
[10] = AUC (0 to infinity) in Sprague-Dawley rat at 1 mg/kg, iv measured upto 24 hrs by LC-MS/MS analysis; settings: in vivo
[11] = Cmax in Sprague-Dawley rat at 5 mg/kg, po measured upto 24 hrs by LC-MS/MS analysis; settings: in vivo
[12] = AUC (0 to t) in Sprague-Dawley rat at 1 mg/kg, iv measured upto 24 hrs by LC-MS/MS analysis; settings: in vivo
[13] = AUC (0 to t) in Sprague-Dawley rat at 5 mg/kg, po measured upto 24 hrs by LC-MS/MS analysis; settings: in vivo
[14] = MRT (0 to t) in Sprague-Dawley rat at 5 mg/kg, po measured upto 24 hrs by LC-MS/MS analysis; settings: in vivo
[15] = Oral bioavailability in Sprague-Dawley rat at 5 mg/kg measured upto 24 hrs by LC-MS/MS analysis; settings: in vivo
[16] = Half life in Sprague-Dawley rat at 5 mg/kg, po measured upto 24 hrs by LC-MS/MS analysis; settings: in vivo
[17] = MRT (0 to infinity) in Sprague-Dawley rat at 5 mg/kg, po measured upto 24 hrs by LC-MS/MS analysis; settings: in vivo
[18] = Volume of distribution in Sprague-Dawley rat at 5 mg/kg, po measured upto 24 hrs by LC-MS/MS analysis; settings: in vivo

Vd [1]: 6.49 L/kg
Drug uptake [2]: Active
CL/F [3]: 383 mL/min/kg
Cmax [4]: 1640 ng/mL
Tmax [5]: 0.29 h
MRT inf [6]: 0.44 h
AUC(0-inf) [7]: 266 ng·h/mL
half-life [8]: 1.19 h
MRT last at 24 h [9]: 0.39 h
AUC(0-inf) [10]: 268 ng·h/mL
Cmax [11]: 186 ng/mL
AUC(0-t) at 24 h [12]: 267 ng·h/mL
AUC(0-t) at 24 h [13]: 265 ng·h/mL
MRT last at 24 h [14]: 1.77 h
bioavailability [15]: 20%
half-life [16]: 1.36 h
MRT inf [17]: 1.85 h
Vz [18]: 46.52 L/kg
SMILES: COc1cc(C(CC(=O)O)c2cccc3c2CCN(C(=O)c2ccc(OC(C)C)cc2Cl)C3)cc2nnn(C)c12 (stereo not drawn)

From ChEMBL document CHEMBL6092171, “Discovery of Propionic Acid Derivatives with a 5-THIQ Core as Potent and Orally Bioavailable Keap1-Nrf2 Protein-Protein Interaction Inhibitors for Acute Kidney Injury” (J Med Chem, 2024)
